According to patent publication EP4722211A1, “FGFR2/3 SELECTIVE INHIBITOR, PHARMACEUTICAL COMPOSITION AND USE THEREOF” (Changchun Genescience Pharmaceutical Co., Ltd., priority 2023, dated 2024):
Like-named read-outs stand apart in the source and are kept apart here.

Key:
Ba/F3-FGFR1 cells = assay: Cell proliferation inhibition, CTG method (Ba/F3-FGFR1); assay type: cell-based; settings: 72 hrs
Description: (§1) The CTG method was used to detect the inhibitory effect of the compound on the proliferation of Ba/F3-FGFR1, Ba/F3-FGFR2, Ba/F3-FGFR3, and Ba/F3-FGFR4 cells. The highest concentration tested was 3000 nM, which was three-fold diluted to give 10 concentrations. The test was duplicated.
(§2) • a) Ba/F3-FGFR1, Ba/F3-FGFR2, Ba/F3-FGFR3, and Ba/F3-FGFR4 were cultured to exponential growth period for later use. […] 30 µL of Ba/F3-FGFR1, Ba/F3-FGFR2, Ba/F3-FGFR3, or Ba/F3-FGFR4 (500/well) was uniformly seeded in a 384-well black-edge cell culture plate containing the compound, having the wells at the edge blocked with 50 µL PBS, and cultured in an incubator with CO2 at 37°C for 72 hrs. • d) 30 µL of Cell-Titer-Glo reagent was added to each well, shaken and mixed evenly on a shaker, and then incubated at 37°C for 30 min. Then the signal was detected on a microplate reader after the signal was stable.

Ba/F3-FGFR2 cells = assay: Cell proliferation inhibition, CTG method (Ba/F3-FGFR2); assay type: cell-based; settings: 72 hrs
Description: as §1, §2

Ba/F3-FGFR3 cells = assay: Cell proliferation inhibition, CTG method (Ba/F3-FGFR3); assay type: cell-based; settings: 72 hrs
Description: as §1
• a) Ba/F3-FGFR1, Ba/F3-FGFR2, Ba/F3-FGFR3, and Ba/F3-FGFR4 were cultured to exponential growth period for later use. Complete medium: RPMI1640 medium, 10% FBS, 1% GlutaMAX and P/S, 10 ng/mL FGF1, 10 µg/mL Heparin,10 µM 2-mercaptoethanol, 2 µg/mL puromycin. • b) The stock solution of the compound of 3000 nM was diluted into a 384 cell culture plate using the ECHO liquid handling station, and centrifuged at 1000 g for 1 min. • c) The cells were digested. 30 µL of Ba/F3-FGFR1, Ba/F3-FGFR2, Ba/F3-FGFR3, or Ba/F3-FGFR4 (500/well) was uniformly seeded in a 384-well black-edge cell culture plate containing the compound, having the wells at the edge blocked with 50 µL PBS, and cultured in an incubator with CO2 at 37°C for 72 hrs. • d) 30 µL of Cell-Titer-Glo reagent was added to each well, shaken and mixed evenly on a shaker, and then incubated at 37°C for 30 min. Then the signal was detected on a microplate reader after the signal was stable.

Ba/F3-FGFR4 cells = assay: Cell proliferation inhibition, CTG method (Ba/F3-FGFR4); assay type: cell-based; settings: 72 hrs
Description: as §1, §2

[1] = Pharmacokinetic study in SD rats after oral gavage, plasma by LC/MS/MS; assay type: in vivo; settings: rat, 2 mg/kg, 2mpk; for AUC(0-inf): read-out: AUCINF_pred; for MRT inf: read-out: MRTINF_pred
Description: The SD rats were used as test animals. The drug concentration in plasma at different time points was determined by LC/MS/MS method after the compound of the present invention was administered to the SD rats by oral gavage. The pharmacokinetic behavior of the compound of the present invention in SD rats was studied and the pharmacokinetic characteristics were evaluated.
24 SD Rat rats (female:male 1:1), purchased from Shanghai Ji Hui Laboratory Animal Breeding Co., Ltd., animal production license SCXK (Shanghai) 2017-0012, were divided into 6 groups.
The prescription was 5% DMSO + 60% PEG300 + 35% glucose aqueous solution. A proper amount of the representative compound of the present invention (converted according to the purity and salt coefficient) was weighed. A prescribed amount of DMSO was added, and a clear and transparent solution was obtained by vortex. Then a prescribed amount of PEG300 was added, and mixed by vortex. Then, a prescribed amount of a glucose aqueous solution was added. A 0.6 mg/mL or 2 mg/mL solution was obtained. During the preparation, if a solution cannot be obtained, ultrasonication in a water bath at a temperature not higher than 60°C can be performed to facilitate the dissolution.
Rats were administered by oral gavage (2mpk) after fasting for one night.
At 15 min, 30 min, 1 hr, 2 hrs, 4 hrs, 6 hrs, 8 hrs, and 24 hrs after administration, about 30 µL blood samples were collected into an anticoagulation tube containing the anticoagulant EDTA-K2, and centrifuged within 30 minutes to obtain the plasma. The whole blood sample was placed on wet ice before centrifugation. All of the collected plasma samples were stored on dry ice or at a temperature not higher than -70°C before analysis and detection. Liquid chromatography-tandem mass spectrometry (LC/MS/MS) was used to determine the original drug concentration in the plasma and the administered solution.

FGFR1 = target: T1, FGFR1 (Homo sapiens, UniProt P11362); assay: Kinase inhibitory activity by HTRF method (FGFR1); assay type: biochemical; settings: highest concentration 3000 nM, 10 concentrations, duplicate
T1 construct: purchased Invitrogen PR4660A
T1 sequence (P11362 22-822): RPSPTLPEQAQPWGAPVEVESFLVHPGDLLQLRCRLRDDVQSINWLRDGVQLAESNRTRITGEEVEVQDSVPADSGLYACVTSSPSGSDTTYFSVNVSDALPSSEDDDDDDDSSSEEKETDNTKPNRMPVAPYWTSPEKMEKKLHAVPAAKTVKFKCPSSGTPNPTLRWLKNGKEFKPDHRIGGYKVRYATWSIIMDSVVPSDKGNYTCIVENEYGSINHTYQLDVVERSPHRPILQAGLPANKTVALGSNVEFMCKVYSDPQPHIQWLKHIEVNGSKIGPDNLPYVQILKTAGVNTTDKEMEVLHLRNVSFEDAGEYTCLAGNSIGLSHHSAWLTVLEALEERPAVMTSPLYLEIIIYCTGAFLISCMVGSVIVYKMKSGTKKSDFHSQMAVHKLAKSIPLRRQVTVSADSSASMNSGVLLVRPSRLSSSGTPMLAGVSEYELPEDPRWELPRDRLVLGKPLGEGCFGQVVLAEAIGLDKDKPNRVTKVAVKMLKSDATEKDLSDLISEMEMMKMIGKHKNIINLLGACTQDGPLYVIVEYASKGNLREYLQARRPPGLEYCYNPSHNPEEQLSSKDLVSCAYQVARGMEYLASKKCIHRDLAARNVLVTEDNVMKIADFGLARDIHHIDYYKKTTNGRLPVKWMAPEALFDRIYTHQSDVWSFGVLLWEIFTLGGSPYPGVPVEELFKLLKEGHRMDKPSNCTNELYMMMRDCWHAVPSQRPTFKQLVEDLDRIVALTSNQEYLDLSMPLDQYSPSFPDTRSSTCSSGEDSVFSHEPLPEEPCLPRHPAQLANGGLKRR
Description: (§3) The inhibitory activity of the compounds on FGFR1 and FGFR3 kinases was tested by HTRF method. The highest concentration tested was 3000 nM, which was three-fold diluted to give 10 concentrations. The test was duplicated. […]

FGFR3 = target: T2, FGFR3 (Homo sapiens, UniProt P22607); assay: Kinase inhibitory activity by HTRF method (FGFR3); assay type: biochemical; settings: highest concentration 3000 nM, 10 concentrations, duplicate
T2 construct: purchased Invitrogen PR4631B
T2 sequence (P22607 23-806): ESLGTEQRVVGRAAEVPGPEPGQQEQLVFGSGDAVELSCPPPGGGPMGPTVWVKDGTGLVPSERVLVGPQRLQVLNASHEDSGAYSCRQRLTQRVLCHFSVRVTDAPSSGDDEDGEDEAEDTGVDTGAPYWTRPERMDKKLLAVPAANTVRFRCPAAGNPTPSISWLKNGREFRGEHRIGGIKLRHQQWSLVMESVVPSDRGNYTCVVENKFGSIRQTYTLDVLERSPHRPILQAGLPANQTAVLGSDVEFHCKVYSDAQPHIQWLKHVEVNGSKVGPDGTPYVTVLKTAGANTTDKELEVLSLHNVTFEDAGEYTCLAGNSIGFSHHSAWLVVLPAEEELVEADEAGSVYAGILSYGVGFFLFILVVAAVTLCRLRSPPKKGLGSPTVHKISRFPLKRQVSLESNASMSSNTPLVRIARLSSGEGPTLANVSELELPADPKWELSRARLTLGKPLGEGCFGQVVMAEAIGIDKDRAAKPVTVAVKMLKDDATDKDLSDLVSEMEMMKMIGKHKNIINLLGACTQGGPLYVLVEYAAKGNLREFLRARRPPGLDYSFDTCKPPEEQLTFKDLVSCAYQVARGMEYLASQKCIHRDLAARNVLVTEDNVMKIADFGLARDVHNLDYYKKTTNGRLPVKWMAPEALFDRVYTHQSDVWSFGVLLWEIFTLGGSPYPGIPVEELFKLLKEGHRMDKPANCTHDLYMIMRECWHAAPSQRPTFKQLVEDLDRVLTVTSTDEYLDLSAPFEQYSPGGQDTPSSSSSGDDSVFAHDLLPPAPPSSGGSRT
Description: as §3

[2] = both sexes, Sprague-Dawley (SD)

Compound	IC50 (Ba/F3-FGFR1 cells) [nM]	IC50 (Ba/F3-FGFR2 cells) [nM]	IC50 (Ba/F3-FGFR3 cells) [nM]	IC50 (Ba/F3-FGFR4 cells) [nM]	other results
C[C@@H](Oc1ccc2[nH]nc(-c3ccc(N4CCN(S(C)(=O)=O)CC4)nc3)c2n1)c1c(Cl)cncc1Cl [Cpd-119A]	45.9		7.3		
C[C@@H](Oc1ccc2[nH]nc(-c3ccc(C4=CCS(=O)(=O)CC4)nc3)c2n1)c1c(Cl)cncc1Cl [Cpd-02A, (R)-4-(5-(5-(1-(3,5-dichloropyridin-4-yl)ethoxy)-1H-pyrazolo[4,3-b]pyridin-3-yl)pyridin-2-yl)-3,6-dihydro-2H-thiopyran 1,1-dioxide]	23.9		5.06		
Cc1nn(CC(C)(C)O)c(C)c1-c1ccc(-c2n[nH]c3ccc(O[C@H](C)c4c(Cl)cncc4Cl)nc23)cn1 [Cpd-158A]	23.6	2	2.6	55.4	
CCN1CCN(c2ccc(Nc3cc(N(C)C(=O)Nc4c(Cl)c(OC)cc(OC)c4Cl)ncn3)cc2)CC1 [Infigratinib, reference compound]	8.1	4	11.9	277	AUC(0-t) [1, 2]: 103 ng·h/mL; Cmax [1, 2]: 22.2 ng/mL; Tmax [1, 2]: 3 h; half-life [1, 2]: 1.1 h; AUC(0-inf) [1, 2]: 106 ng·h/mL; MRT inf [1, 2]: 3.1 h
C[C@@H](Oc1ccc2[nH]nc(-c3cnc(C4=CCS(=O)(=O)CC4)c(F)c3)c2n1)c1c(Cl)cncc1Cl [Cpd-03A, (R)-4-(5-(5-(1-(3,5-dichloropyridin-4-yl)ethoxy)-1H-pyrazolopyridin-3-yl)-3-fluoropyridin-2-yl)-3,6-dihydro-2H-thiapyran 1,1-dioxide]	14.2	8.4	4.2	33.8	AUC(0-t) [1]: 86.2 ng·h/mL; Cmax [1]: 24.4 ng/mL; Tmax [1]: 1 h; half-life [1]: 1.5 h; AUC(0-inf) [1]: 91.5 ng·h/mL; MRT inf [1]: 2 h
CC(Oc1ccc2[nH]nc(-c3ccc(S(C)(=N)=O)nc3)c2n1)c1c(Cl)cncc1Cl (single isomer, unassigned) [Cpd-01D, (5-(5-(1-(3,5-dichloropyridin-4-yl)ethoxy)-1H-pyrazolo[4,3-b]pyridin-3-yl)pyridin-2-yl)(imino)(methyl)-λ^6-sulfonyl ketone]					IC50 (FGFR1): 36.1 nM; IC50 (FGFR3): 6.2 nM
CC(Oc1ccc2[nH]nc(-c3ccc(S(C)(=N)=O)nc3)c2n1)c1c(Cl)cncc1Cl (single isomer, unassigned) [Cpd-01C, (5-(5-(1-(3,5-dichloropyridin-4-yl)ethoxy)-1H-pyrazolo[4,3-b]pyridin-3-yl)pyridin-2-yl)(imino)(methyl)-λ^6-sulfonyl ketone]					IC50 (FGFR1): 34.8 nM; IC50 (FGFR3): 4.8 nM

Further lines, with some results ahead:

IC50 (Ba/F3-FGFR1 cells) [nM]	IC50 (Ba/F3-FGFR2 cells) [nM]	IC50 (Ba/F3-FGFR3 cells) [nM]	IC50 (Ba/F3-FGFR4 cells) [nM]	Compound	other results
98.3	11.7	15.4	237	Cc1nn(CC(C)(C)O)c(C)c1-c1ncc(-c2n[nH]c3ccc(O[C@H](C)c4c(Cl)cncc4Cl)nc23)cc1F [Cpd-161A, (R)-1-(4-(5-(5-(1-(3,5-dichloropyridin-4-yl)ethoxy)-1H-pyrazolo[4,3-b]pyridin-3-yl)-3-fluoropyridin-2-yl)-3,5-dimethyl-1H-pyrazol-1-yl)-2-methyl-2-propanol]	
31.5	3.5	4.9	72.9	Cc1cc2[nH]nc(-c3ccc(-c4c(C)nn(CC(C)(C)O)c4C)nc3)c2nc1O[C@H](C)c1c(Cl)cncc1Cl [Cpd-175A, (R)-1-(4-(5-(5-(1-(3,5-dichloropyridin-4-yl)ethoxy)-6-methyl-1H-pyrazolo[4,3-b]pyridin-3-yl)pyridin-2-yl)-3,5-dimethyl-1H-pyrazol-1-yl)-2-methyl-2-propanol]	AUC(0-t) [1, 2]: 359 ng·h/mL; Cmax [1, 2]: 82.6 ng/mL; Tmax [1, 2]: 2 h; half-life [1, 2]: 3.2 h; AUC(0-inf) [1, 2]: 508 ng·h/mL; MRT inf [1, 2]: 3.5 h
31.4	10.6	9.7	76.3	Cc1nn(C2CC2)cc1-c1ccc(-c2n[nH]c3ccc(O[C@H](C)c4c(Cl)cncc4Cl)nc23)cn1 [Cpd-145A, (R)-3-(6-(1-cyclopropyl-3-methyl-1H-pyrazol-4-yl)pyridin-3-yl)-5-(1-(3,5-dichloropyridin-4-yl)ethoxy)-1H-pyrazolo[4,3-b]pyridine]	AUC(0-t) [1, 2]: 1570 ng·h/mL; Cmax [1, 2]: 186 ng/mL; Tmax [1, 2]: 2 h; half-life [1, 2]: 4 h; AUC(0-inf) [1, 2]: 1610 ng·h/mL; MRT inf [1, 2]: 5.6 h
123	16.7	13.6	80.4	C[C@@H](Oc1ccc2[nH]nc(-c3ccc(N4CCC(C(C)(C)O)CC4)nc3)c2n1)c1c(Cl)cncc1Cl [Cpd-124A]	
32.6	3.6	4	29.8	Cc1nn(CC(C)(C)O)cc1-c1ncc(-c2n[nH]c3ccc(O[C@H](C)c4c(Cl)cncc4Cl)nc23)cc1F [Cpd-162A, (R)-1-(4-(5-(5-(1-(3,5-dichloropyridin-4-yl)ethoxy)-1H-pyrazolo[4,3-b]pyridin-3-yl)-3-fluoropyridin-2-yl)-3-methyl-1H-pyrazol-1-yl)-2-methyl-2-propanol]	
